Measurements reported in ChEMBL document CHEMBL4390670, “4-Aryl Pyrrolidines as a Novel Class of Orally Efficacious Antimalarial Agents. Part 1: Evaluation of 4-Aryl- N-benzylpyrrolidine-3-carboxamides” (J Med Chem, 2019).
Blank lines part the entries; values can stand above or below the compound they belong to. Calls of active or inactive are those of the source. The rule behind the calls is not given here.

Assays:
Plasmodium falciparum [1] = experiment: microbe, parasite or virus in culture; details: 3D7, 72 h
[2] = Intrinsic clearance in mouse liver microsomes at 1 uM measured after 30 mins in presence of NADPH by LC-MS/MS analysis; assay type: ADME, Microsome; details: 0.5 h
Plasmepsin 4 = Plasmepsin 4 (Plasmodium falciparum, UniProt Q17SB2); experiment: Inhibition of Plasmodium falciparum plasmepsin 4 using EDANS-CO-CH2-CH2-CO-ALERMFLSFP-Dap(DABCYL)OH as substrate measured after 60 mins by fluorescence assay
[3] = Apparent volume of distribution in mouse at 2 mg/kg, iv by LC-MS analysis; assay type: ADME, organism-based; details: in vivo, read-out: Vz
[4] = target: Voltage-gated inwardly rectifying potassium channel KCNH2 (Homo sapiens, UniProt Q12809)
Beta-secretase 1 = Beta-secretase 1 (Homo sapiens, UniProt P56817); experiment: Inhibition of recombinant human C-terminal His10-tagged BACE1 using Mca-SEVNLDAEFRK(Dpn)RR-NH2 as substrate measured after 60 mins by TR-FRET assay
[5] = Apparent clearance in mouse at 2 mg/kg, iv by LC-MS analysis; assay type: ADME, organism-based; details: in vivo, read-out: CL(app)
[6] = Half life in mouse at 2 mg/kg, iv by LC-MS analysis; assay type: ADME, organism-based; details: in vivo
[7] = Oral bioavailability in mouse at 5 mg/kg by LC-MS analysis; details: in vivo
Plasmepsin II = Plasmepsin II (Plasmodium falciparum, UniProt P46925); experiment: Inhibition of Plasmodium falciparum plasmepsin 2 using EDANS-CO-CH2-CH2-CO-ALERMFLSFP-Dap(DABCYL)OH as substrate measured after 60 mins by fluorescence assay
[8] = Half life in mouse liver microsomes at 1 uM measured after 30 mins in presence of NADPH by LC-MS/MS analysis; assay type: ADME, Microsome; details: for t1/2: microsomes, 0.5 h, 1 µM
Plasmodium falciparum [9] = experiment: Inhibition of Plasmodium falciparum plasmepsin 9 by Western blot analysis
[10] = target: Plasmepsin V (Plasmodium falciparum (isolate 3D7)) (UniProt Q8I6Z5); experiment: Inhibition of Plasmodium falciparum plasmepsin 5 by knockdown assay
Plasmodium falciparum [11] = experiment: Inhibition of Plasmodium falciparum plasmepsin 10 by Western blot analysis
HepG2 = experiment: Cytotoxicity against human HepG2 cells measured after 72 hrs by PrestoBlue cell viability reagent based assay; details: HepG2, 72 h
hERG = experiment: in vitro; details: human, membranes expressing human ERG, probe Tracer Red
Plasmodium falciparum [12] = test system: Plasmodium falciparum
[13] = Apparent volume of distribution in mouse at 1 mg/kg, iv by LC-MS analysis; assay type: ADME, organism-based; details: in vivo, read-out: Vz
[14] = Apparent clearance in mouse at 1 mg/kg, iv by LC-MS analysis; assay type: ADME, organism-based; details: in vivo, read-out: CL(app)
[15] = Half life in mouse at 1 mg/kg, iv by LC-MS analysis; assay type: ADME, organism-based; details: in vivo
Plasmodium chabaudi = experiment: Antimalarial activity against chloroquine-resistant Plasmodium chabaudi ASCQ infected in NIH mouse assessed as inhibition of parasitemia at 10 mg/kg, po administered once daily for 4 days starting from 4 hrs post-infection and measured on day 4 by Peter's 4 day test relative to control; assay type: functional

Sequence of Voltage-gated inwardly rectifying potassium channel KCNH2 (Q12809 whole entry): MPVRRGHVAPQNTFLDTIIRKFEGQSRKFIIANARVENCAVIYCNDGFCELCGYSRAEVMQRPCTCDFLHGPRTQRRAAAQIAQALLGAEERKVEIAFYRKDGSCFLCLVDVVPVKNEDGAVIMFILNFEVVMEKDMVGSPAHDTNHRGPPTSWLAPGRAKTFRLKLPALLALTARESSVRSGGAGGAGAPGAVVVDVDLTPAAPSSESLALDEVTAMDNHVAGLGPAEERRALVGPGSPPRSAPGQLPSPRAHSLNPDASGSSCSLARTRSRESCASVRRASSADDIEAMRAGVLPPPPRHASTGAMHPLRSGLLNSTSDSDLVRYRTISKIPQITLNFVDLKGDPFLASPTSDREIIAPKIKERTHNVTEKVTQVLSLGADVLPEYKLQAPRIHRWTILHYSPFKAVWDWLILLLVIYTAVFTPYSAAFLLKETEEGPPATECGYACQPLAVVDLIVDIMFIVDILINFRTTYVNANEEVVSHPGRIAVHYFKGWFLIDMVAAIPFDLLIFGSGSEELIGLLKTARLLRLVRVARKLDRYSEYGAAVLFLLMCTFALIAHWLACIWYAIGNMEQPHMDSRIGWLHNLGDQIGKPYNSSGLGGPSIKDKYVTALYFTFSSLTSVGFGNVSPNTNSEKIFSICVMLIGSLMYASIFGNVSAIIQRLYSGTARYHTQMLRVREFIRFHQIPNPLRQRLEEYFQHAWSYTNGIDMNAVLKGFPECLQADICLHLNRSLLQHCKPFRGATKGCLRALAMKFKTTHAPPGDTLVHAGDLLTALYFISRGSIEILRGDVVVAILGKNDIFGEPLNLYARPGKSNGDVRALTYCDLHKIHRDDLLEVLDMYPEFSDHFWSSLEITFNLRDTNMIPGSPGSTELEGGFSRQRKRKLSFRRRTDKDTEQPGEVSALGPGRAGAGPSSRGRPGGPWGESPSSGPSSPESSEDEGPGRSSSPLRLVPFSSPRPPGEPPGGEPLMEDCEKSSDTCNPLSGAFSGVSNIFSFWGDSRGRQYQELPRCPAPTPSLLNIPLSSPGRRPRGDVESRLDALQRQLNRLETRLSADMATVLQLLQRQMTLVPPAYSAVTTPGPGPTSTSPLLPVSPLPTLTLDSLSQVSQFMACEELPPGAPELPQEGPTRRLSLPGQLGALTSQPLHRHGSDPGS
Sequence of Plasmepsin II (P46925 whole entry): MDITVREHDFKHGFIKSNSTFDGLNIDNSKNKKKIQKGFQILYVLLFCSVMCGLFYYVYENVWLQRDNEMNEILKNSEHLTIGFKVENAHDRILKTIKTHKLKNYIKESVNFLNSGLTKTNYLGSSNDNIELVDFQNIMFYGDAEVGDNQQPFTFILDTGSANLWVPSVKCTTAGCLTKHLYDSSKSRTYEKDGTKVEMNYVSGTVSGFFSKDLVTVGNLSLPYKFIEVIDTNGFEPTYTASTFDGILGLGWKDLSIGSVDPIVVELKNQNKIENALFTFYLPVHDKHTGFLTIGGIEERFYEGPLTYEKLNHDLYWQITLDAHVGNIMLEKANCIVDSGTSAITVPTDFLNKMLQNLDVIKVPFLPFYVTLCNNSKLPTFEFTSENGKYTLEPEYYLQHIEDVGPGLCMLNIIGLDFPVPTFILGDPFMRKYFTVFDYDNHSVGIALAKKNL
Sequence of Beta-secretase 1 (P56817 whole entry): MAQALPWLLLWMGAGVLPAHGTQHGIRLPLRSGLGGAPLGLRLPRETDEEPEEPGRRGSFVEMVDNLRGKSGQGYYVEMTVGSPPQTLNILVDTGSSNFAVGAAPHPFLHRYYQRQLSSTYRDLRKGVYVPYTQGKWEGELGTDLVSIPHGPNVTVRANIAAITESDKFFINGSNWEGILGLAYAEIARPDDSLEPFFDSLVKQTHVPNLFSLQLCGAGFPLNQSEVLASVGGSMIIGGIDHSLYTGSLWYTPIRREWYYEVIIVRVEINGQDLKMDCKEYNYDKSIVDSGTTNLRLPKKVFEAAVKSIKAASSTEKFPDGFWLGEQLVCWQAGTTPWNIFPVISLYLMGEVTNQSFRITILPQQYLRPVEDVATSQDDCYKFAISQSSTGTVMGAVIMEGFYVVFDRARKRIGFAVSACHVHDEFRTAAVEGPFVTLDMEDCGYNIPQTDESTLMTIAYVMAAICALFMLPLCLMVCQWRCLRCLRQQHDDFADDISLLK
Sequence of Plasmepsin 4 (Q17SB2 whole entry): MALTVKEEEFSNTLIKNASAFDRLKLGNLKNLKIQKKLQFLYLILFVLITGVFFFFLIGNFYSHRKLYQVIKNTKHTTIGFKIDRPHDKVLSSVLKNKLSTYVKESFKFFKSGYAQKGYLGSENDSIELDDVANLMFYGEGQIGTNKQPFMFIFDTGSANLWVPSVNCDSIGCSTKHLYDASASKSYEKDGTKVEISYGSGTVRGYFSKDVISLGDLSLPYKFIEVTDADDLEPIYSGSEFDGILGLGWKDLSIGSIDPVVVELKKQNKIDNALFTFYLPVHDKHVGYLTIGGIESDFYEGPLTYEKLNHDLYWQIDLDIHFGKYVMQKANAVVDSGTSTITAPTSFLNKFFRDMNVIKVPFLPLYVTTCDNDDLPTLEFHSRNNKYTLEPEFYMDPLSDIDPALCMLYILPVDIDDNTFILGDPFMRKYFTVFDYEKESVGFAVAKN
Sequence of Plasmepsin V (Plasmodium falciparum (isolate 3D7)) (Q8I6Z5 whole entry, looked up): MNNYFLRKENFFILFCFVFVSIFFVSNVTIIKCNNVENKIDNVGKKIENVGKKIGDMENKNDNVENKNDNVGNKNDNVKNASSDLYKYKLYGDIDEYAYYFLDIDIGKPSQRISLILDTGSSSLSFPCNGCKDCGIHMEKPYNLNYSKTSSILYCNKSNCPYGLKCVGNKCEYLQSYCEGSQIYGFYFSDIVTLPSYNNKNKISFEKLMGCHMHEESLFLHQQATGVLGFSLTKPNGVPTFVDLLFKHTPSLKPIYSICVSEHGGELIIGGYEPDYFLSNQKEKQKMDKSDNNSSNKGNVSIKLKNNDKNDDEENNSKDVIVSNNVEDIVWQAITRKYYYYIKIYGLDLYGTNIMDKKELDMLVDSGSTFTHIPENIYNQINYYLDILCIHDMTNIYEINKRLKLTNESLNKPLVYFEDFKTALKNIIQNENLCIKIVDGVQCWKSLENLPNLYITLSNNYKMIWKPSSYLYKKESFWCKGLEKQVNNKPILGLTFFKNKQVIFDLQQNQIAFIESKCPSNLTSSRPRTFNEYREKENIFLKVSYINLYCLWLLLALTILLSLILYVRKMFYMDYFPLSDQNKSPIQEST

IC50 (Plasmodium falciparum [1]): 1200 nM
Compound: O=C(NCc1ccc(Br)cc1)[C@H]1CNC[C@@H]1c1ccc(C(F)(F)F)nc1

IC50 (Plasmodium falciparum [1]): 280 nM
Compound: CN(C)c1ccc(CNC(=O)[C@@H]2CNC[C@H]2c2cnc3ccccc3c2)cc1 (racemic)

IC50 (Plasmodium falciparum [1]): 470 nM
Compound: CN(C)c1ccc(CNC(=O)[C@H]2CNC[C@@H]2c2ccc(S(F)(F)(F)(F)F)cc2)cc1 (racemic)

Compound: CN(C)c1ccc(CNC(=O)[C@H]2CNC[C@@H]2c2ccc(C(F)(F)F)nc2)cc1 (racemic)
Intrinsic clearance (CLint) [2]: 3.1 µL/min/mg | IC50 (Plasmepsin 4): > 10000 nM | Vd [3]: 3.2 L/kg | IC50 [4]: 21700 nM | IC50 (Plasmodium falciparum [1]): 230 to 250 nM | IC50 (Beta-secretase 1): > 10000 nM | clearance [5]: 5.9 mL/min/kg | half-life [6]: 396 min | bioavailability [7]: 13% | IC50 (Plasmepsin II): > 10000 nM | t1/2 [8]: 70 min

IC50 (Plasmodium falciparum [1]): 11000 nM
Compound: C[C@@H](NC(=O)[C@H]1CNC[C@@H]1c1ccc(C(F)(F)F)nc1)c1ccc(N(C)C)cc1

IC50 (Plasmodium falciparum [1]): 380 nM
Compound: C[C@H](NC(=O)[C@@H]1CNC[C@H]1c1ccc(C(F)(F)F)nc1)c1ccc(N(C)C)cc1

IC50 (Plasmodium falciparum [1]): 5300 nM
Compound: CN(C)c1ccc(CNC(=O)[C@H]2CNC[C@@H]2c2cc(C(F)(F)F)n(C)n2)cc1 (racemic)

IC50 (Plasmodium falciparum [1]): 340 nM
Compound: CN(C)c1ccc(CNC(=O)[C@@H]2CNC[C@H]2c2ccc(C(F)(F)F)cc2Cl)cc1 (racemic)

IC50 (Plasmodium falciparum [1]): > 20000 nM
Compound: CN(C)Cc1ccc(CNC(=O)[C@H]2CNC[C@@H]2c2ccc(C(F)(F)F)nc2)cc1 (racemic)

inhibition (Plasmodium falciparum [9]): inactive | inhibition [10]: inactive | IC50 (Plasmodium falciparum [1]): 360 to 385 nM | inhibition (Plasmodium falciparum [11]): inactive | half-life at 1 µM ([8]; liver microsomes): 37 min
Compound: COc1ccc(CNC(=O)[C@@H]2CNC[C@H]2c2ccc(C(F)(F)F)cc2)cc1 (racemic)
IC50 (HepG2): 33000 nM

IC50 (Plasmodium falciparum [1]): 640 nM
Compound: O=C(NCc1ccc(N2CCCC2)cc1)[C@H]1CNC[C@@H]1c1ccc(C(F)(F)F)nc1 (racemic)

IC50 (Plasmodium falciparum [1]): 4300 nM
Compound: O=C(NCc1ccccc1)[C@@H]1CNC[C@H]1c1ccc(C(F)(F)F)cc1 (racemic)

Compound: Cc1ccc([C@@H]2CNC[C@H]2C(=O)NCc2ccc(N(C)C)cc2)cc1Cl (racemic)
IC50 (Plasmodium falciparum [1]): 230 nM

IC50 (Plasmodium falciparum [1]): 280 nM
Compound: CN(C)c1ccc(CNC(=O)[C@H]2CNC[C@@H]2c2ccc(C(C)(C)C)s2)cc1 (racemic)

IC50 (Plasmodium falciparum [1]): 410 nM
Compound: CN(C)c1ccc(CNC(=O)[C@H]2CNC[C@@H]2c2cccc(S(F)(F)(F)(F)F)c2)cc1 (racemic)

IC50 (Plasmodium falciparum [1]): 270 nM
Compound: CN(C)c1ccc(CNC(=O)[C@H]2CNC[C@@H]2c2cc3ccccc3s2)cc1 (racemic)

Compound: CN(C)c1ccc(CNC(=O)[C@H]2CNC[C@@H]2c2ccc(C(F)(F)F)cc2)cc1 (racemic)
Intrinsic clearance (CLint) [2]: 6.2 µL/min/mg | IC50 (Plasmepsin 4): > 10000 nM | IC50 [4]: 9410 nM | IC50 (Plasmodium falciparum [1]): 200 nM | IC50 (Beta-secretase 1): > 10000 nM | IC50 (Plasmepsin II): > 10000 nM | t1/2 [8]: 35 min

Compound: CN(C)c1ccc(CNC(=O)[C@H]2CNC[C@@H]2c2cnc(C(F)(F)F)nc2)cc1 (racemic)
selectivity ratio (hERG): > 111 | IC50 [4]: > 50000 nM | IC50 (Plasmodium falciparum [1]): 450 nM

Compound: CN(C)c1ccc(CNC(=O)[C@H]2CNC[C@@H]2c2ccc(C(F)(F)F)nc2)cc1
IC50 (Plasmodium falciparum [12]): 116 nM

IC50 (Plasmodium falciparum [1]): 29000 nM
Compound: O=C(NCc1ccc(-n2cccn2)cc1)[C@H]1CNC[C@@H]1c1ccc(C(F)(F)F)nc1

IC50 (Plasmodium falciparum [1]): 16000 nM
Compound: CN(C)c1ccc(CNC(=O)[C@@H]2CNC[C@H]2c2ccc(Oc3ccccn3)cc2)cc1 (racemic)

IC50 (Plasmodium falciparum [1]): 890 nM
Compound: CN(C)c1ccc(CNC(=O)[C@@H]2CNC[C@H]2c2ccc(C(F)(F)F)cc2F)cc1 (racemic)

Compound: C[C@H](NC(=O)[C@H]1CNC[C@@H]1c1ccc(C(F)(F)F)nc1)c1ccc(N(C)C)cc1
selectivity ratio (hERG): > 357 | IC50 [4]: > 50000 nM | IC50 (Plasmodium falciparum [1]): 140 nM

Compound: Cc1ccc(CNC(=O)[C@@H]2CNC[C@H]2c2ccc(C(F)(F)F)cc2)cc1 (racemic)
Vd [13]: 7.3 L/kg | Intrinsic clearance (CLint) [2]: 1.4 µL/min/mg | IC50 (Plasmepsin 4): > 10000 nM | clearance [14]: 52 mL/min/kg | IC50 (Plasmodium falciparum [1]): 460 nM | IC50 (Beta-secretase 1): > 10000 nM | half-life [15]: 102 min | IC50 (Plasmepsin II): > 10000 nM | t1/2 [8]: 161 min

Compound: CN(C)c1ccc(CNC(=O)[C@@H]2CNC[C@H]2c2ccc(Cl)c(Cl)c2)cc1 (racemic)
IC50 (Plasmodium falciparum [1]): 130 nM

IC50 (Plasmodium falciparum [1]): 220 nM
Compound: CN(C)c1ccc(CNC(=O)[C@H]2CNC[C@@H]2c2ccc3sccc3c2)cc1 (racemic)

IC50 (Plasmodium falciparum [1]): 1000 nM
Compound: CN(C)c1ccc(CNC(=O)[C@H]2CNC[C@@H]2c2ccc(C(F)(F)F)nc2)cn1

IC50 (Plasmodium falciparum [1]): 5900 nM
Compound: O=C(NCc1ccc(-c2ccccc2)cc1)[C@H]1CNC[C@@H]1c1ccc(C(F)(F)F)nc1

IC50 (Plasmodium falciparum [1]): 240 nM
Compound: CN(C)c1ccc(CNC(=O)[C@H]2CNC[C@@H]2c2ccc3ccsc3c2)cc1 (racemic)

IC50 (Plasmodium falciparum [1]): 130 nM
Compound: CN(C)c1ccc(CNC(=O)[C@H]2CNC[C@@H]2c2ccc(C(C)(F)F)cc2)cc1 (racemic)

Compound: C[C@@H]1CC[C@H]2[C@@H](C)C(=O)O[C@@H]3O[C@@]4(C)CC[C@@H]1[C@]32OO4 [ARTEMISININ]
IC50 (Plasmodium falciparum [1]): 54 nM

IC50 (Plasmodium falciparum [1]): 1100 nM
Compound: CN(C)c1ccc(CNC(=O)[C@H]2CNC[C@@H]2c2ccc(C(F)(F)F)s2)cc1 (racemic)

Compound: CN(C)c1ccc(CNC(=O)[C@@H]2CNC[C@H]2c2ccc(C(F)(F)F)c(F)c2)cc1 (racemic)
Intrinsic clearance (CLint) [2]: 6.4 µL/min/mg | IC50 (Plasmepsin 4): > 10000 nM | IC50 [4]: 8540 nM | IC50 (Plasmodium falciparum [1]): 140 nM | IC50 (Beta-secretase 1): > 10000 nM | IC50 (Plasmepsin II): > 10000 nM | t1/2 [8]: 34 min

IC50 (Plasmodium falciparum [1]): 1500 nM
Compound: CN(C)c1ccc(CNC(=O)[C@H]2CNC[C@@H]2c2cnc(C(F)(F)F)s2)cc1 (racemic)

Compound: CCN(CC)c1ccc(CNC(=O)[C@@H]2CNC[C@H]2c2ccc(C(F)(F)F)cc2)cc1 (racemic)
IC50 (Plasmepsin 4): > 10000 nM | IC50 [4]: 4740 nM | IC50 (Plasmodium falciparum [1]): 600 nM | IC50 (Beta-secretase 1): > 10000 nM | IC50 (Plasmepsin II): > 10000 nM

IC50 (Plasmodium falciparum [1]): 18000 nM
Compound: O=C(NCc1ccc(C(F)(F)F)nc1)[C@H]1CNC[C@@H]1c1ccc(C(F)(F)F)nc1

Compound: Cc1ccc([C@@H]2CNC[C@H]2C(=O)NCc2ccc(N(C)C)cc2)cc1 (racemic)
IC50 (Plasmodium falciparum [1]): 750 nM

Compound: C[C@H](NC(=O)[C@@H]1CNC[C@H]1c1ccc(C(F)(F)F)cc1)c1ccc(N(C)C)cc1
IC50 (Plasmodium falciparum [1]): 130 nM

IC50 (Plasmodium falciparum [1]): 1800 nM
Compound: CN(C)c1ccc(CNC(=O)[C@@H]2CNC[C@H]2c2cccc(Oc3ccccc3)c2)cc1 (racemic)

IC50 (Plasmodium falciparum [1]): 190 nM
Compound: CN(C)c1ccc(CNC(=O)[C@@H]2CNC[C@H]2c2ccc(C(C)(C)C)cc2)cc1 (racemic)

Compound: CN(C)c1ccc(CNC(=O)[C@@H]2CNC[C@H]2c2ccc(Oc3ccccc3)cc2)cc1 (racemic)
Intrinsic clearance (CLint) [2]: 7.2 µL/min/mg | IC50 (Plasmepsin 4): > 10000 nM | IC50 [4]: 2110 nM | IC50 (Plasmodium falciparum [1]): 170 nM | IC50 (Beta-secretase 1): > 10000 nM | IC50 (Plasmepsin II): > 10000 nM | t1/2 [8]: 31 min

Compound: CN(C)c1ccc(CNC(=O)[C@@H]2CNC[C@H]2c2ccc(C(F)(F)F)c(Cl)c2)cc1 (racemic)
Intrinsic clearance (CLint) [2]: 6.7 µL/min/mg | IC50 (Plasmepsin 4): > 10000 nM | IC50 [4]: 7560 nM | IC50 (Plasmodium falciparum [1]): 83 nM | IC50 (Beta-secretase 1): > 10000 nM | IC50 (Plasmepsin II): > 10000 nM | t1/2 [8]: 33 min

IC50 (Plasmodium falciparum [1]): 150 nM
Compound: CN(C)c1ccc(CNC(=O)[C@H]2CNC[C@@H]2c2cc3ccccc3o2)cc1 (racemic)

Compound: CCN(CC)CCCC(C)Nc1ccnc2cc(Cl)ccc12 (stereo not drawn) [CHLOROQUINE]
inhibition in vivo at 10 mg/kg (Plasmodium chabaudi): 95%

IC50 (Plasmodium falciparum [1]): 250 nM
Compound: CN(C)c1ccc(CNC(=O)[C@H]2CNC[C@@H]2c2ccc(C(F)F)cc2)cc1 (racemic)

IC50 (Plasmodium falciparum [1]): 4400 nM
Compound: CN(C)c1ccc(CNC(=O)[C@@H]2CNC[C@H]2CCc2ccc(C(F)(F)F)cc2)cc1 (racemic)

Compound: CN(C)c1ccc(CNC(=O)[C@@H]2CNC[C@H]2c2ccc(Cl)cc2)cc1 (racemic)
IC50 (Plasmodium falciparum [1]): 680 nM

IC50 (Plasmodium falciparum [1]): 230 nM
Compound: CN1CCc2cc(CNC(=O)[C@@H]3CNC[C@H]3c3ccc(C(F)(F)F)cc3)ccc21 (racemic)
